In patent US11208400B2, “Substituted 6-(1H-pyrazol-1-yl)pyrimidin-4-amine derivatives and uses thereof” (Bayer Aktiengesellschaft, priority 2016, dated 2021):

These compounds were tested against T1, human Npt2a (Homo sapiens, UniProt Q06495) (assay: Npt2a activity cell based assay, membrane potential dye, CHO T-REx hNpt2a cells). Settings: doxycycline-induced, depolarization by sodium phosphate influx, average or median values if tested more than once.
T1 construct: expressed in transfected cells
T1 sequence (Q06495 1-639): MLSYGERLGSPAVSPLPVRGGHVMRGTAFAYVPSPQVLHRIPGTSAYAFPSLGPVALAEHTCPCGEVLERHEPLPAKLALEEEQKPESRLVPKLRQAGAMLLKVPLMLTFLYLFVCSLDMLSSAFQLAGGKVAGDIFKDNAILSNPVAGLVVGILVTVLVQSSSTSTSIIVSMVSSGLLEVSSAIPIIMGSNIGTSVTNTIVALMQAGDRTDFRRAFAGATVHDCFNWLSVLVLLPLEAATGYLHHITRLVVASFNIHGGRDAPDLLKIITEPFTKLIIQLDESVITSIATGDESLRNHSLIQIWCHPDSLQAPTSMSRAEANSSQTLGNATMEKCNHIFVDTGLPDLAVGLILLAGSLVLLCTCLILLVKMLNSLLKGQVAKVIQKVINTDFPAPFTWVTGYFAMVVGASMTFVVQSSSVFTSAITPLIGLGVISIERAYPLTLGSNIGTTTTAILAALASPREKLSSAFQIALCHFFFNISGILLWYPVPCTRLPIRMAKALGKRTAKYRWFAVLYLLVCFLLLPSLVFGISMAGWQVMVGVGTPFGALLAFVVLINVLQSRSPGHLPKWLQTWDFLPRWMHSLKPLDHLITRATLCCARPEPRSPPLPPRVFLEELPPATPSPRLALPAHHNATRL
Outline: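 Cells were doxycycline-induced CHO T-REx hNpt2a, dye-loaded and pretreated 5 min at RT with 1 nM–50 μM compound in Na-free pH 7.4 buffer. IC50 was fit to the post/pre-trigger fluorescence ratio.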
For `CCc1c(Nc2cc(-n3nc(C)c(C(=O)N4CC(C)OC(C)C4)c3C)ncn2)nn(C)c1-c1ccc(F)cc1` (racemic) [Example 74, (±)-[syn-2,6-dimethylmorpholin-4-yl][1-(6-{[4-ethyl-5-(4-fluorophenyl)-1-methyl-1H-pyrazol-3-yl]amino}pyrimidin-4-yl)-3,5-dimethyl-1H-pyrazol-4-yl]methanone], the IC50 was 1260 nM. For `COc1c(-c2ccc(C#N)cc2)nn(CC2CC2)c1Nc1cc(-n2nc(C)c(C(C)=O)c2C)ncn1` [Example 318, 4-[5-{[6-(4-acetyl-3,5-dimethyl-1H-pyrazol-1-yl)pyrimidin-4-yl]amino}-1-(cyclopropylmethyl)-4-methoxy-1H-pyrazol-3-yl]benzonitrile], the IC50 was 790 nM. Work on `COc1c(-c2ccc(F)cc2)nn(CC2CC2)c1Nc1cc(-n2nc(C)cc2C)ncn1` [Example 315, N-[1-(cyclopropylmethyl)-3-(4-fluorophenyl)-4-methoxy-1H-pyrazol-5-yl]-6-(3,5-dimethyl-1H-pyrazol-1-yl)pyrimidin-4-amine] yielded an IC50 of 99 nM. `Cc1c(-c2ccc(F)cc2)nn(CC2CC2)c1Nc1cc(-n2[nH]c3c(c2=O)CCCC3)ncn1` [Example 416, 2-(6-{[1-(cyclopropylmethyl)-3-(4-fluorophenyl)-4-methyl-1H-pyrazol-5-yl]amino}pyrimidin-4-yl)-1,2,4,5,6,7-hexahydro-3H-indazol-3-one] was tested, and the IC50 was 1150 nM. `Cc1nn(-c2cc(Nc3c(C)c(-c4ccc(F)cc4)nn3CC3CC3)ncn2)c(C)c1C#N` [Example 288, 1-(6-{[1-(cyclopropylmethyl)-3-(4-fluorophenyl)-4-methyl-1H-pyrazol-5-yl]amino}pyrimidin-4-yl)-3,5-dimethyl-1H-pyrazole-4-carbonitrile] was tested, and the IC50 was 16 nM. Work on `Cc1nn(-c2cc(Nc3c(C)c(-c4ccc(C#N)cc4)nn3C)ncn2)c(C)c1Cl` [Example 201, 4-(5-{[6-(4-chloro-3,5-dimethyl-1H-pyrazol-1-yl)pyrimidin-4-yl]amino}-1,4-dimethyl-1H-pyrazol-3-yl)benzonitrile] yielded an IC50 of 6 nM. In the case of `Cc1cc(C(F)F)n(-c2cc(Nc3c(C)c(-c4ccc(C#N)cc4)nn3CC(F)F)ncn2)n1` [Example 234, 4-[1-(2,2-difluoroethyl)-5-({6-[5-(difluoromethyl)-3-methyl-1H-pyrazol-1-yl]pyrimidin-4-yl}amino)-4-methyl-1H-pyrazol-3-yl]benzonitrile], the IC50 is reported as 28 nM. `Cc1nn(-c2cc(Nc3c(C)c(-c4ccc(F)cc4)nn3CC3CC3)ncn2)c(C)c1CN1CC(F)C1` [Example 452, N-[1-(cyclopropylmethyl)-3-(4-fluorophenyl)-4-methyl-1H-pyrazol-5-yl]-6-{4-[(3-fluoroazetidin-1-yl)methyl]-3,5-dimethyl-1H-pyrazol-1-yl}pyrimidin-4-amine] showed an IC50 of 16 nM. `CCOC(=O)c1c(C)nn(-c2cc(Nc3nn(CC4CC4)c(-c4ccc(F)cc4)c3Cl)ncn2)c1C` [Example 153, ethyl 1-(6-{[4-chloro-1-(cyclopropylmethyl)-5-(4-fluorophenyl)-1H-pyrazol-3-yl]amino}pyrimidin-4-yl)-3,5-dimethyl-1H-pyrazole-4-carboxylate] was tested, and the IC50 was 410 nM. `CCc1c(Nc2cc(-n3nc(C)c(-c4nnc(C)o4)c3C)ncn2)nn(C)c1-c1ccc(F)cc1` [Example 271, 6-[3,5-dimethyl-4-(5-methyl-1,3,4-oxadiazol-2-yl)-1H-pyrazol-1-yl]-N-[4-ethyl-5-(4-fluorophenyl)-1-methyl-1H-pyrazol-3-yl]pyrimidin-4-amine] gave an IC50 of 39 nM. With `Cc1c(-c2ccc(C#N)cc2)nn(CC2CC2)c1Nc1cc(-n2cc(C(F)(F)F)cn2)ncn1` [Example 247, 4-[1-(cyclopropylmethyl)-4-methyl-5-({6-[4-(trifluoromethyl)-1H-pyrazol-1-yl]pyrimidin-4-yl}amino)-1H-pyrazol-3-yl]benzonitrile] the IC50 was 29 nM. `CCc1c(Nc2cc(-n3nc(C)c4c3CCC4(C)O)ncn2)nn(C)c1-c1ccc(F)cc1` (racemic) [Example 146, (rac)-1-(6-{[4-ethyl-5-(4-fluorophenyl)-1-methyl-1H-pyrazol-3-yl]amino}pyrimidin-4-yl)-3,4-dimethyl-1,4,5,6-tetrahydrocyclopenta[c]pyrazol-4-ol] gave an IC50 of 126 nM. Compound `Cc1cc(C(F)F)n(-c2cc(Nc3c(Cl)c(-c4ccc(C#N)cc4)nn3CC3CC3)ncn2)n1` [Example 445, 4-[4-chloro-1-(cyclopropylmethyl)-5-({6-[5-(difluoromethyl)-3-methyl-1H-pyrazol-1-yl]pyrimidin-4-yl}amino)-1H-pyrazol-3-yl]benzonitrile] has an IC50 of 12 nM. `CCOC(=O)c1c(Cl)c(C)nn1-c1cc(Nc2nn(C)c(-c3ccc(F)cc3)c2C)ncn1` [Example 259, ethyl 4-chloro-1-(6-{[5-(4-fluorophenyl)-1,4-dimethyl-1H-pyrazol-3-yl]amino}pyrimidin-4-yl)-3-methyl-1H-pyrazole-5-carboxylate] showed an IC50 of 50 nM. Compound `CCc1c(Nc2cc(-n3nc(C)cc3C)ncn2)nn(C)c1-c1ccc(C#N)cc1` [Example 210, 4-(3-{[6-(3,5-dimethyl-1H-pyrazol-1-yl)pyrimidin-4-yl]amino}-4-ethyl-1-methyl-1H-pyrazol-5-yl)benzonitrile] has an IC50 of 13 nM. `Cc1nn(-c2cc(Nc3[nH]nc(-c4ccc(C#N)cc4)c3C)ncn2)c(C)c1F` [Example 266, 4-(5-{[6-(4-fluoro-3,5-dimethyl-1H-pyrazol-1-yl)pyrimidin-4-yl]amino}-4-methyl-1H-pyrazol-3-yl)benzonitrile] showed an IC50 of 410 nM. With `Cc1cc(C(F)F)n(-c2cc(Nc3nn(C)c(-c4ccc(C(F)F)cc4)c3C)ncn2)n1` [Example 432, 6-[5-(difluoromethyl)-3-methyl-1H-pyrazol-1-yl]-N-{5-[4-(difluoromethyl)phenyl]-1,4-dimethyl-1H-pyrazol-3-yl}pyrimidin-4-amine] the IC50 was 320 nM. `Cc1nn(-c2cc(Nc3c(C)c(-c4ccc(C(F)F)cc4)nn3CC3CC3)ncn2)c(C)c1C(C)(C)O` [Example 396, 2-{1-[6-({1-(cyclopropylmethyl)-3-[4-(difluoromethyl)phenyl]-4-methyl-11H-pyrazol-5-yl}amino)pyrimidin-4-yl]-3,5-dimethyl-1H-pyrazol-4-yl}propan-2-ol] showed an IC50 of 16 nM. In the case of `Cc1cc(C(F)F)n(-c2cc(Nc3c(C4CC4)c(-c4ccc(F)cc4)nn3C)ncn2)n1` [Example 96, N-[4-cyclopropyl-3-(4-fluorophenyl)-1-methyl-1H-pyrazol-5-yl]-6-[5-(difluoromethyl)-3-methyl-1H-pyrazol-1-yl]pyrimidin-4-amine], the IC50 is reported as 110 nM. `Cc1nn(-c2cc(Nc3c(C)c(-c4ccc(F)cc4)nn3CC3CC3)ncn2)c(C)c1C(O)C1CC1` (single isomer, unassigned) [Example 419, cyclopropyl[1-(6-{[1-(cyclopropylmethyl)-3-(4-fluorophenyl)-4-methyl-1H-pyrazol-5-yl]amino}pyrimidin-4-yl)-3,5-dimethyl-1H-pyrazol-4-yl]methanol] showed an IC50 of 14 nM. With `Cc1nn(-c2cc(Nc3c(C)c(-c4ccc(F)cc4)nn3CC3CC3)ncn2)c(C)c1C1(C(F)(F)F)OCCO1` [Example 517, N-[1-(cyclopropylmethyl)-3-(4-fluorophenyl)-4-methyl-1H-pyrazol-5-yl]-6-{3,5-dimethyl-4-[2-(trifluoromethyl)-1,3-dioxolan-2-yl]-1H-pyrazol-1-yl}pyrimidin-4-amine] the IC50 was 29 nM.
